Experimental data published in PMC10047490, “Novel Generation of FAP Inhibitor-Based Homodimers for Improved Application in Radiotheranostics” (Cancers, 2023).
Read-outs that look alike come from different tables or passages of the source.

Assays:
FAP = conditions: different assay conditions; cited from earlier work
[1] = target: T1, rhFAP (recombinant human fibroblast activation protein) (Homo sapiens, UniProt Q12884); assay: In vitro inhibition assay (IC50), FAP, substrate Z-Gly-Pro-AMC; assay type: biochemical; conditions: for IC50 values for FAP (in words): summary statement on Table 3
T1 construct: made in house
T1 sequence (Q12884 1-760): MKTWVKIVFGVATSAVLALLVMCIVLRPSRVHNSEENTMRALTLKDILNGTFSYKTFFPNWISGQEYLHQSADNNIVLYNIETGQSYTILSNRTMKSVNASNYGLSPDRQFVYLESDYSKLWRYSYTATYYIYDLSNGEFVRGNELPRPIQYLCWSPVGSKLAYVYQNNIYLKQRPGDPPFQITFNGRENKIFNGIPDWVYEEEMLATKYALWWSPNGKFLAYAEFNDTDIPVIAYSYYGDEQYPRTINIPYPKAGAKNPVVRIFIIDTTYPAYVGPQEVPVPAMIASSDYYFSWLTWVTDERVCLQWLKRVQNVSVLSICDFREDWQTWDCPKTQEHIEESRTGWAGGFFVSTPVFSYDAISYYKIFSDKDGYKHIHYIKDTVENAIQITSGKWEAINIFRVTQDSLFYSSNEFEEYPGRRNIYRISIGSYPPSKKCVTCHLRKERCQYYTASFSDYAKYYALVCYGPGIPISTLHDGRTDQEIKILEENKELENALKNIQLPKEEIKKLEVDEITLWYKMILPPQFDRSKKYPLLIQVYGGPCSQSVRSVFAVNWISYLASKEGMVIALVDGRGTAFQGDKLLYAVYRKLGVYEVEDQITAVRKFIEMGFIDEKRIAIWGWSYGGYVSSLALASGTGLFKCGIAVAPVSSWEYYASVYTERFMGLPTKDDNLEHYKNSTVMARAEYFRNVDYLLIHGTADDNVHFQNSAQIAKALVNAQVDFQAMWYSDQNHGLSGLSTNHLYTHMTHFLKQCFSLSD
Procedure: (§1) rhFAP (recombinant human fibroblast activation protein), DPP8 (dipeptidyl peptidase VIII) and DPP9 (dipeptidyl peptidase IX) were expressed and purified as described previously. DPP4 (dipeptidyl peptidase IV) was purified from human seminal plasma as described previously. Human recombinant PREP (prolylendopeptidase) was expressed and purified as described before.
(§2) IC50 measurements for FAP and PREP were carried out as described before. […] For PREP, N-succinyl-Gly-Pro-AMC (Bachem) at a final concentration of 250 µM at pH 7.4 in 0.1 M K-phosphate, 1 mM EDTA, 1 mM DTT and 1 mg/mL BSA buffer was used.
(§3) All enzymatic activities were determined kinetically for 15 min at 37 °C by measuring initial velocities of AMC release (λex = 380 nm and λem = 465 nm) or pNA release (405 nm) from the substrates mentioned above with an Infinite 200 plate reader from Tecan Group Ltd. (Männedorf, Switzerland). The Magellan software was used to process the data, and data fitting was performed using a non-linear fitting model in Grafit 7.4. All IC50 measurements were carried out in triplicate with at least eight different inhibitor concentrations tested.

[2] = target: T2, Human recombinant PREP (prolylendopeptidase) (Homo sapiens, UniProt P48147); assay: In vitro inhibition assay (IC50), PREP, substrate N-succinyl-Gly-Pro-AMC; assay type: biochemical; conditions: for IC50: 250 µM N-succinyl-Gly-Pro-AMC, pH 7.4, 37 °C; for SI(PREP/FAP): selectivity index = IC50(PREP)/IC50(FAP)
T2 construct: made in house
T2 sequence (P48147 1-710): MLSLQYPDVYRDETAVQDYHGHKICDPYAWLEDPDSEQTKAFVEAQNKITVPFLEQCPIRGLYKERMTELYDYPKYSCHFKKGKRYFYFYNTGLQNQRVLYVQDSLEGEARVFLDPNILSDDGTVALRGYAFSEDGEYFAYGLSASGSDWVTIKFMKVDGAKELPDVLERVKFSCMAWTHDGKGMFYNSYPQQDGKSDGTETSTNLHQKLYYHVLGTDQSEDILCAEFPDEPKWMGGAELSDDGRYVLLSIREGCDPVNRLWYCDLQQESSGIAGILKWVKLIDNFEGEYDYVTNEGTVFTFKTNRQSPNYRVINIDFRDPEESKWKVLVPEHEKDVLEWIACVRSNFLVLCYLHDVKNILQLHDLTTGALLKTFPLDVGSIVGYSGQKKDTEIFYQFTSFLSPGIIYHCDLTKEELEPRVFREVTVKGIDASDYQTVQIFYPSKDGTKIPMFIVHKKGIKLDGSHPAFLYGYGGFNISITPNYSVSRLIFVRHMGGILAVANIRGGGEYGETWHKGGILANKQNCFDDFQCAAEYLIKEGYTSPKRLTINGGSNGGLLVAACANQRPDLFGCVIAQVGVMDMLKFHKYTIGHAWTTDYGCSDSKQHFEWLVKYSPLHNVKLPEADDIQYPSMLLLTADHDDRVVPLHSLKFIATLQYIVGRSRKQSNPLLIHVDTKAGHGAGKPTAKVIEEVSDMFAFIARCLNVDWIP
Procedure: as §1, §2, §3

[3] = target: T3, DPP4 (dipeptidyl peptidase IV) purified from human seminal plasma (Homo sapiens, UniProt P27487); assay: In vitro inhibition assay (IC50), DPP4, substrate Ala-Pro-pNA; assay type: biochemical; conditions: for IC50: 25 µM Ala-Pro-pNA, pH 7.4, 37 °C; for SI(DPP4/FAP): selectivity index = IC50(DPP4)/IC50(FAP)
T3 construct: DPP4 (dipeptidyl peptidase IV) was purified from human seminal plasma; from tissue; host or cells: human seminal plasma
Procedure: as §1, §3

[4] = target: T4, DPP8 (dipeptidyl peptidase VIII) (Homo sapiens, UniProt Q6V1X1); assay: In vitro inhibition assay (IC50), DPP8, substrate Ala-Pro-pNA; assay type: biochemical; conditions: for IC50: 300 µM Ala-Pro-pNA, pH 7.4, 37 °C
T4 construct: made in house
Procedure: as §1, §3

[5] = target: T5, DPP9 (dipeptidyl peptidase IX) (Homo sapiens, UniProt Q86TI2); assay: In vitro inhibition assay (IC50), DPP9, substrate Ala-Pro-pNA; assay type: biochemical; conditions: for IC50: 150 µM Ala-Pro-pNA, pH 7.4, 37 °C; for SI(DPP9/FAP): selectivity index = IC50(DPP9)/IC50(FAP)
T5 construct: made in house
Procedure: as §1, §3

[6] = target: T4, DPP8 (dipeptidyl peptidase VIII); conditions: from previous works; cited from earlier work

T4 sequence (Q6V1X1 whole entry, species assumed): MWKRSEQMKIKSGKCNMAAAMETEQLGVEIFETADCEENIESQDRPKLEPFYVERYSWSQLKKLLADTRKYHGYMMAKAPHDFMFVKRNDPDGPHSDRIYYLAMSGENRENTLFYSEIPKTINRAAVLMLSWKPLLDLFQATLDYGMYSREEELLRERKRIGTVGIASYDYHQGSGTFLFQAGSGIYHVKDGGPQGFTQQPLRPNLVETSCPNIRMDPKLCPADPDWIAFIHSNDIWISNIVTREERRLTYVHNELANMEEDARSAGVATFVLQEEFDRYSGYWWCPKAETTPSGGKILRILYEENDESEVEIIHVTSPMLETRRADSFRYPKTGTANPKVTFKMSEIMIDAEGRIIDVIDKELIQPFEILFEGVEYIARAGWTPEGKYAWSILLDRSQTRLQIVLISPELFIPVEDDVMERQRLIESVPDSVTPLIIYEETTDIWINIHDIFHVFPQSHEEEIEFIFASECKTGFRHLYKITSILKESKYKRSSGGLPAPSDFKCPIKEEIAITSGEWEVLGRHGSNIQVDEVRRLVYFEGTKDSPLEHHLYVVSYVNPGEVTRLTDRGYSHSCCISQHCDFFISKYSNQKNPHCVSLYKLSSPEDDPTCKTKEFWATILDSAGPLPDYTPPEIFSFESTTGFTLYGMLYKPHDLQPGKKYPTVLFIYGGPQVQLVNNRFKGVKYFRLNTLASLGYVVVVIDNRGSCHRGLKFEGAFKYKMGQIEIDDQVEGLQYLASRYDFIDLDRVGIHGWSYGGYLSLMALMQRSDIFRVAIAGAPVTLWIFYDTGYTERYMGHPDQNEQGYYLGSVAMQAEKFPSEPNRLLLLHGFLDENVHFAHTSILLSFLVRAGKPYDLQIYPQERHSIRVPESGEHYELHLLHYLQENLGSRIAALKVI
T3 sequence (P27487 whole entry): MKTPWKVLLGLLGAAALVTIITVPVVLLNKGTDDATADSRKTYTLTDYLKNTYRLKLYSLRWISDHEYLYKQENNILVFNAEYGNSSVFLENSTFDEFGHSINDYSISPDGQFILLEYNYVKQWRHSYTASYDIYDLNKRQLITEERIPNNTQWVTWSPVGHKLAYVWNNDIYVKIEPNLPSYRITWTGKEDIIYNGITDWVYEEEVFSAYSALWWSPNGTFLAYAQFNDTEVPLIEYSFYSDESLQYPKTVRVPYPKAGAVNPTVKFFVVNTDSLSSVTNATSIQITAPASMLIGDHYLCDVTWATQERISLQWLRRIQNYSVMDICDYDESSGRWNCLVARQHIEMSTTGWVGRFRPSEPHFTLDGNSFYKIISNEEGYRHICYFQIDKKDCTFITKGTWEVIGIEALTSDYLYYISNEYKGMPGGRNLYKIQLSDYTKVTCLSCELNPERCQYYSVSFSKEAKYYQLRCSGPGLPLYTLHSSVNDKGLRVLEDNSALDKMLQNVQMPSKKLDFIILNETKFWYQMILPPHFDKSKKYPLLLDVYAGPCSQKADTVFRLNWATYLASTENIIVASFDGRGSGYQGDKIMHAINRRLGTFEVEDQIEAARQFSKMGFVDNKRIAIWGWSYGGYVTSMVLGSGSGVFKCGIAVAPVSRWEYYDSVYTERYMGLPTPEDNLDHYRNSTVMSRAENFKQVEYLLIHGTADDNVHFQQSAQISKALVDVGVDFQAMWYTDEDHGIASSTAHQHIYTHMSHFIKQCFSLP
T5 sequence (Q86TI2 whole entry, species assumed): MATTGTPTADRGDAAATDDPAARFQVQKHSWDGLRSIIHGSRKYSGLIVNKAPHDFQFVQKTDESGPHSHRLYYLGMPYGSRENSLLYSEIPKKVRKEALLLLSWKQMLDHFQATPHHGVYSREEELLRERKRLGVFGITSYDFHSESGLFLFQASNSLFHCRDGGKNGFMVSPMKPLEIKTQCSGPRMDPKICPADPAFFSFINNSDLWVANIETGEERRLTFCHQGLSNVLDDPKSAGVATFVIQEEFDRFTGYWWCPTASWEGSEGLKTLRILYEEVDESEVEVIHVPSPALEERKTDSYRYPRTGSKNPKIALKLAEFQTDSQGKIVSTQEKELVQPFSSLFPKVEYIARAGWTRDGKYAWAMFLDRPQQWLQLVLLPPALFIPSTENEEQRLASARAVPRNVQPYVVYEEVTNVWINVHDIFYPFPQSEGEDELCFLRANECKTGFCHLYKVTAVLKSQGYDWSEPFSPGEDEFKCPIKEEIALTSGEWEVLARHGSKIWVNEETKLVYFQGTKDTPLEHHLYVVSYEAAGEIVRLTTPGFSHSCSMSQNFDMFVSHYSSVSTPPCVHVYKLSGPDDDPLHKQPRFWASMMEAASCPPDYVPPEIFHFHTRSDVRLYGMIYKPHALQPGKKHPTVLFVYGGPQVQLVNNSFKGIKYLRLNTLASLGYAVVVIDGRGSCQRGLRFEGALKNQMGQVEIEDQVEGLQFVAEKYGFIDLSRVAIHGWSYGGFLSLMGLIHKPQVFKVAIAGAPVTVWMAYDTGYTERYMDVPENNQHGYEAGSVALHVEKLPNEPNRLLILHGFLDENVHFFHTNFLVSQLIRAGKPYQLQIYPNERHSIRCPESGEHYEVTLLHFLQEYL

Structure (SMILES)	IC50 (FAP) [nM]	IC50 values for FAP (in words) [1]	IC50 [2] [nM]	SI(PREP/FAP) [2]	IC50 [3] [nM]	SI(DPP4/FAP) [3]	IC50 [4] [nM]	SI(DPP8/FAP) ([4]; selectivity index = IC50(DPP8)/IC50(FAP))	IC50 [5] [nM]	SI(DPP9/FAP) [5]	IC50 ([1]; 50 µM Z-Gly-Pro-AMC, pH 8.0, 37 °C, triplicate) [nM]	IC50 [6] [nM]
N#C[C@@H]1CC(F)(F)CN1C(=O)CNC(=O)c1ccnc2c(NC(=O)CCC(=O)NCCCC[C@H](NC(=O)CCC(=O)Nc3cccc4c(C(=O)NCC(=O)N5CC(F)(F)C[C@H]5C#N)ccnc34)C(=O)NCCNC(=O)CC[C@H](C(=O)O)N3CCN(CC(=O)O)CCN(CC(=O)O)CCN(CC(=O)O)CC3)cccc12 [BiOncoFAP-DOTAGA]	0.17											
N#C[C@@H]1CC(F)(F)CN1C(=O)CNC(=O)c1ccnc2ccc(OCCCCNC(=O)CC[C@H](NC(=O)CN3CCN(CC(=O)O)CCN(CC(=O)O)CCN(CC(=O)O)CC3)C(=O)NCCCCOc3ccc4nccc(C(=O)NCC(=O)N5CC(F)(F)C[C@H]5C#N)c4c3)cc12 [DO3A.Glu.(FAPi)2, 2,2′,2″-(10-(2-(((S)-1,5-bis((4-((4-((2-((S)-2-Cyano-4,4-difluoropyrrolidin-1-yl)-2-oxoethyl)-carbamoyl)quinolin-6-yl)oxy)butyl)amino)-1,5-dioxopentan-2-yl)amino)-2-oxoethyl)-1,4,7,10-tetraazacyclododecane-1,4,7-triyl)triacetic acid]		subnanomolar	1000 ± 140	1667	540 ± 60	900	1030 ± 180	1717	950 ± 110	1583		
N#C[C@@H]1CC(F)(F)CN1C(=O)CNC(=O)c1ccnc2ccc(OCCCCNC(=O)CC[C@H](NC(=O)CCC(C(=O)O)N3CCN(CC(=O)O)CCN(CC(=O)O)CCN(CC(=O)O)CC3)C(=O)NCCCCOc3ccc4nccc(C(=O)NCC(=O)N5CC(F)(F)C[C@H]5C#N)c4c3)cc12 (stereo partly drawn) [DOTAGA.Glu.(FAPi)2, 2,2′,2″-(10-(4-(((S)-1,5-bis((4-((4-((2-((S)-2-Cyano-4,4-difluoropyrrolidin-1-yl)-2-oxoethyl)-carbamoyl)quinolin-6-yl)oxy)butyl)amino)-1,5-dioxopentan-2-yl)amino)-1-carboxy-4-oxobutyl)-1,4,7,10-tetraazacyclododecane-1,4,7-triyl)triacetic acid]		subnanomolar	590 ± 100	2269	1190 ± 80	4577	29 ± 4		83 ± 1.5	319	0.26 ± 0.04	
N#C[C@@H]1CC(F)(F)CN1C(=O)CNC(=O)c1ccnc2ccccc12 [UAMC-1110]												> 10000
